Reference: patent publication US20080154102A1, “Intraoperative imaging methods” (priority 2006, published 2008)
Entries after “also recorded” stand apart in the source; their conditions may differ. One block for each compound: values may come before it.

Experiments:
common bile duct [1] = assay: Cholangiographic imaging with ICG, IR-786 and CW800-CA in rats; assay type: in vivo
Method: 50 μL of 100 μM IR-786 or CW800-CA (15 μg/kg), or 1 mM ICG (150 μg/kg), was injected into portal vein in anesthetized rats. A simultaneous color video/NIR fluorescence intraoperative imaging system was employed for quantification of NIR fluorescence images. In another 32 rats, bile duct was visualized by intravenous (N=16) or portal vein injection (N=16) of 50 μL of CW800-CA at 10, 20, 50 and 100 μM to quantify the best concentration for bile duct imaging. Fluorescence intensities of bile duct, liver (right lobe), and pancreas were measured at 3, 5, 10, 20, and 30 min following injection.

[2] = Excretion to bile / clearance after injection; assay type: in vivo
Absorbance spectrometry = assay type: physicochemical; details: for Peak Absorbance in PBS: Table 2
Method: (§1) Absorbance spectrometry was performed with a 1-cm path length quartz cuvette in a USB2000 fiber-optic spectrometer (Ocean Optics, Dunedin, Fla.). Fluorescence spectrometry was performed with a 1-cm path length, 1.5 mL disposable methacrylate cuvette (Fisher Scientific, Hampton, N.H.) in a HR2000 fiber-optic spectrometer, and CUV-ALL-UV four-way cuvette holder (Ocean Optics), using a 655 nm laser diode light source (OPCOM O.E. Inc., Xiamen, China) with maximum output less than 5 mW. Data acquisition was performed with a computer using an OOI-Base32 spectrometer operating software package (Ocean Optics). The spectral range of the USB2000-FL spectrometer was from 350 to 1000 nm with spectral resolution of 7.6 nm, and that of the HR2000 spectrometer was from 200 to 1100 nm with a spectral resolution of 6.7 nm.

[3] = Fluorescence spectrometry and fluorescence quantum yield; assay type: physicochemical; details: for Peak Fluorescence in PBS / Quantum Yield in PBS: Table 2
Method: as §1
Fluorescence intensity was measured in each solvent (PBS, FBS, and methanol) at each concentration of the dye to determine the effect of the methylene blue concentration and solvents on total fluorescence yield. Fluorescence quantum yields of methylene blue in PBS, FBS, and methanol were calculated using oxazine725 in ethylene glycol (quantum yield: 19%) as a calibration standard, under the conditions of matched absorbance of methylene blue in each solvent.

[4] = tested on: perforating arteries and veins; assay: NIR imaging of skin perforating vessels for flap surgery; assay type: in vivo, Yorkshire pig; details: 35 kg pig, 0.5 mg (14 μg/kg) intravenously
Method: To evaluate the usefulness of NIR agents for such methods, 0.5 mg (14 μg/kg) indocyanine green (ICG) was injected intravenously into a 35 kg Yorkshire pig, and the skin was imaged as described herein.

[5] = tested on: common bile duct, vasculature, coronary artery, myocardium; assay: Multi-wavelength fluorescence imaging with MB and ICG; assay type: in vivo, pigs; details: pig
Method: Therefore, MB was used to visualize CBD in an anesthetized pig, while ICG was used to visualize vasculature.
To evaluate the possibility of multi-wavelength fluorescent imaging, ICG and methylene blue were used.
1 mg/kg methylene blue IV injection was followed 30 min after by 0.03 mg/kg ICG IV injection. […] NIR camera exposure time was 100 msec.
Next, one of the diagonal branches of the coronary artery (D2) was clamped (white arrow), and then 1 mg/kg of methylene blue was injected intravenously; see the second row of images. Just after releasing the clamp, 0.03 mg/kg ICG was injected intravenously. […] The right-most image in the second row was created by merging the image of the coronary arteriography using methylene blue at clamping D2 and the image using ICG after declamping D2.

thoracic duct = assay: Thoracic duct visualization in the rat model; assay type: in vivo; details: 50 μL of 10 μM into mesenteric lymph node, 5 minutes
Method: Additional experiments on thoracic duct visualization in the rat model were also performed using other NIR fluorescent agents.

ureters = assay: Ureteral mapping in rats; assay type: in vivo
Method: In rats, ureters were visualized by intravenous injection of 50 μL of CW800 CA at 10, 20, 50 and 100 μM to quantify the best concentration for […]. Fluorescence intensities of ureters, kidney, and abdominal wall were measured at 3, 5, 10, 20, and 30 min following injection.

[6] = cited from earlier work
[7] = Metabolism of CW800-CA, HPLC/mass spectrometry of urine samples; assay type: in vivo, pigs
Description: As described herein, ureter visualization can usually be obtained rapidly, even in a few minutes following injection. […] To clarify the point, an HPLC/mass spectrometry (using electrospray/time-of-flight (ES-TOF) method has been made.
Urine samples were collected from pigs (N=5), and analyzed. The dye usually can be pinpointed with a fluorescence detector equipped with ES-TOF mass spectrometry. Urine samples were first passed over a 6,000 Da cutoff gel-filtration column to remove contaminating proteins, and eluate less than 6,000 Da was analyzed on a C18 column. Buffer A was water, BioPlus (American Bioanalytical, Natick, Mass.) and Buffer B was acetonitrile. Using a gradient of 0 to 50% Buffer B over 30 min, urine samples were resolved on a 4.6×150 mm Symmetry C18 column (Waters) at a flow rate of 1 ml per minute with eluate fed into a Waters LCT ES-TOF mass spectrometer. Ion mode was set to electrospray negative (ES−), and cone and capillary voltages were set at 30 and 3000 (V), respectively. Desolvation and source temperature were set at 350, 140 (° C.), respectively. Data were analyzed with Masslynx (Waters) software.

common bile duct [8] = assay: Cholangiographic imaging with CW800-CA in pigs; assay type: in vivo; details: for detection of beads inserted into CBD: 5 mL of 50 μM intravenously, beads 2.5 and 3.5 mm
Method: Based on the results obtained in rats, CW800-CA was chosen as the contrast agent for a large animal model approaching the size of human. In 7 anesthetized pigs, 5 mL of 100 μM CW800-CA (15 μg/kg total) was injected into portal vein (N=3), or 5 mL of 50 μM (N=2) or 100 μM (N=2) of CW800-CA (7.5, and 15 μg/kg total, respectively) were injected intravenously.
Beads of 2.5 or 3.5 mm in diameter were inserted into common bile duct via papilla vateri by duodenostomy (N=2) to simulate blockage of the CBD.

[9] = Fluorescence spectrometry and fluorescence quantum yield; assay type: physicochemical
[10] = rats, portal vein injection, listed as CW800CA

- Peak Absorbance in PBS (Absorbance spectrometry; in PBS): 768 nm
- Peak Fluorescence in PBS ([3]; in PBS): 803 nm
- Quantum Yield in PBS ([3]; in PBS): 3.3%
SMILES: CN1C(=CC=C2CCCC(C=CC3=[N+](C)c4ccccc4C3(C)C)=C2Cl)C(C)(C)c2ccccc21.[O-][Cl+3]([O-])([O-])[O-] [IR-786]
- dye stacking to the liver (common bile duct [1]; rats, portal vein injection): significant dye stacking to the liver
- clearance after intravenous injection [2]: rapidly extracted into many tissues in the body, especially the liver, and is inefficiently transported into bile

- Excitation Wavelength Maximum, (FBS) (Absorbance spectrometry; in FBS): 800 nm
- Molar Extinction Coefficient, (FBS) (Absorbance spectrometry; in FBS): 168,000 M^−1cm^−1
- molar extinction coefficient in FBS (Absorbance spectrometry; in FBS, in M-1cm-1 (unit assumed)): 168,000
- Excitation Wavelength Maximum, PBS (Absorbance spectrometry; in PBS): 779 nm
- Peak Absorbance in PBS (Absorbance spectrometry; in PBS): 779 nm
- Emission Wavelength Maximum, (FBS) ([3]; in FBS): 811 nm
- Fluorescence Quantum Yield, (FBS) ([3]; in FBS): 9%
- ICG fluorescence relative to methylene blue fluorescence ([3]; in FBS, from extinction coefficient and quantum yield): about 8 times
- Emission Wavelength Maximum, PBS ([3]; in PBS): 806 nm
- Fluorescence Quantum Yield, PBS ([3]; in PBS): 1%
- Peak Fluorescence in PBS ([3]; in PBS): 806 nm
- Quantum Yield in PBS ([3]; in PBS): 1%
SMILES: CC1(C)C(/C=C/C=C/C=C/C=C2\N(CCCCS(=O)(=O)O)c3ccc4ccccc4c3C2(C)C)=[N+](CCCCS(=O)(=O)[O-])c2ccc3ccccc3c21 [ICG, indocyanine green]
- dye stacking to the liver (common bile duct [1]; rats, portal vein injection): significant dye stacking to the liver
- identification of perforating arteries and veins [4]: can be identified
- clearance after intravenous injection [2]: rapidly cleared from the blood by the liver, but is only inefficiently transported into bile
- distribution in myocardium after arteriography [5]: evenly distributed over the entire myocardium
- detection of diagonal branch D2 after releasing the clamp ([5]; 0.03 mg/kg intravenously): detected clearly
- structure shown in two-channel NIR imaging ([5]; ICG 800 nm, MB 700 nm): highlights blood vessels
- thoracic duct in the fluorescence image (thoracic duct): clearly visualized in the fluorescence image

- Peak Absorbance in PBS (Absorbance spectrometry; in PBS): 775 nm
- emission of CW800-CA [9]: ≈ 800 nm
- Peak Fluorescence in PBS ([3]; in PBS): 796 nm
- Quantum Yield in PBS ([3]; in PBS): 9%
SMILES: CC1(C)C(/C=C/C2=C(Oc3ccc(S(=O)(=O)O)cc3)C(=C/C=C3/N(CCCCS(=O)(=O)O)c4ccc(S(=O)(=O)[O-])cc4C3(C)C)/CCC2)=[N+](CCCCCC(=O)O)c2ccc(S(=O)(=O)O)cc21 [CW800-CA]
- selectivity among three contrast agents for bile duct imaging (common bile duct [1]; compared with ICG and IR-786): most selective
- dose required for CBD detection, portal vein injection (common bile duct [1]; portal vein injection): 3 to 15 µg/kg
- injected concentration showing the best SBR (CBD) (common bile duct [1]; rats, 50 μL (7.5 μg/kg)): 50 µM
- time of peak performance for CBD visualization (common bile duct [1]; rats, every concentration): approximately 10 minutes
- time at which CBD could be identified (common bile duct [1]; rats, intravenous or portal injection): 3 min
- dye stacking to the liver (common bile duct [1]; rats, portal vein injection): no significant dye stacking to the liver
- signal to background ratio (SBR) of CBD, in words (common bile duct [1]; rats, portal vein injection): excellent signal to background ratio
- dye stacking to the liver (common bile duct [1]; [10]): no dye stacking in the liver
- signal to background ratio (SBR) of CBD, in words (common bile duct [1]; [10]): higher SBR than the other two
- dose required for CBD detection, systemic intravenous injection (common bile duct [1]; systemic intravenous injection): 7.5 to 15 µg/kg
- clearance after intravenous injection [2]: rapidly cleared by: 1) the liver and excreted into bile and 2) the kidneys and excreted into urine
- visualization of ureters, in words (ureters; rat): excellent visualization of ureters
- injected concentration showing the best SBR (ureter) (ureters; rats, 50 μL (7.5 μg/kg)): 50 µM
- time of peak performance for ureter visualization (ureters; rats, every concentration): approximately 10 minutes
- time at which ureters could be identified (ureters; rats, intravenous injection): 3 min
- concentration above which significant quenching of fluorescence occurs ([6]; Ohnishi et al.): above 10 μM
- form in which the dye is excreted ([7]; HPLC/ES-TOF mass spectrometry): excreted into the bile in a substantially unmetabolized form; also recorded: excreted into bile as an unmetabolized form
- fluorescence chromatograph after excretion into urine ([7]; HPLC/mass spectrometry): essentially a single peak with the expected mass spectrum
- detection of beads inserted into CBD (common bile duct [8]): detected completely in 2 of 2 pigs
- detection of beads inserted into CBD (common bile duct [8]; listed as CW800CA): All beads could be detected perfectly in each trial
- time until visualization of the CBD after dye injection (common bile duct [8]; portal vein or intravenous injection): 7 to 10 min
- thoracic duct in the fluorescence image (thoracic duct): clearly visualized in the fluorescence image

SMILES: CCN(CC)c1ccc2nc3ccc(=[N+](CC)CC)cc-3oc2c1.[O-][Cl+3]([O-])([O-])[O-] [oxazine725]
- quantum yield of calibration standard ([6]; in ethylene glycol): 19%
